Like-named read-outs stand apart in the source and are kept apart here.
Tests used:
α4β1 integrin receptor = biological target: T1, α4β1 integrin receptor (Homo sapiens, UniProt P05556+P13612); test: Ramos Cell Adhesion Assay (α4β1 Mediated Adhesion/VCAM-1); assay type: cell-based; details: Table III, read-out: Inhibition of Binding of Ramos Cells to Immobilized VCAM-1 IC50
T1 construct: Ramos Cell Adhesion Assay (α4β1 Mediated Adhesion/VCAM-1); endogenous in cells; host or cells: Ramos cells
Description: Ramos Cell Adhesion Assay (α4β1 Mediated Adhesion/VCAM-1)
(§1) Immulon 96 well plates (Dynex) were coated with 100 μL recombinant hVCAM-1 at 4.0 μg/mL in 0.05 M NaCO3 buffer pH 9.0 overnight at 4° C. (R&D Systems). Plates were washed 3 times in PBS with 1% BSA and blocked for 1 h @ room temperature in this buffer. PBS was removed and compounds to be tested (50 μL) were added at 2× concentration. Ramos cells, (50 μL at 2×10^6/mL) labeled with 5 μM Calcein AM (Molecular Probes) for 1 h at 37° C., were added to each well and allowed to adhere for 1 h at room temperature. Plates were washed 3× in PBS+1% BSA and cells were lysed for 15 minutes in 100 μL of 1 M Tris pH 8.0 with 1% SDS. The plate was read at 485 nm excitation and 530 nm emission.

human α4β7 = biological target: T2, human α4β7 (Homo sapiens, UniProt P13612+P26010); test: α4β7-K562 Cell Adhesion Assay (α4β7 Mediated Adhesion/VCAM-1); assay type: cell-based; details: Table IV, read-out: Inhibition of Binding of K562 Cells to Immobilized VCAM-1 IC50
T2 construct: expressed in transfected cells
T2 sequence (P13612 34-1032): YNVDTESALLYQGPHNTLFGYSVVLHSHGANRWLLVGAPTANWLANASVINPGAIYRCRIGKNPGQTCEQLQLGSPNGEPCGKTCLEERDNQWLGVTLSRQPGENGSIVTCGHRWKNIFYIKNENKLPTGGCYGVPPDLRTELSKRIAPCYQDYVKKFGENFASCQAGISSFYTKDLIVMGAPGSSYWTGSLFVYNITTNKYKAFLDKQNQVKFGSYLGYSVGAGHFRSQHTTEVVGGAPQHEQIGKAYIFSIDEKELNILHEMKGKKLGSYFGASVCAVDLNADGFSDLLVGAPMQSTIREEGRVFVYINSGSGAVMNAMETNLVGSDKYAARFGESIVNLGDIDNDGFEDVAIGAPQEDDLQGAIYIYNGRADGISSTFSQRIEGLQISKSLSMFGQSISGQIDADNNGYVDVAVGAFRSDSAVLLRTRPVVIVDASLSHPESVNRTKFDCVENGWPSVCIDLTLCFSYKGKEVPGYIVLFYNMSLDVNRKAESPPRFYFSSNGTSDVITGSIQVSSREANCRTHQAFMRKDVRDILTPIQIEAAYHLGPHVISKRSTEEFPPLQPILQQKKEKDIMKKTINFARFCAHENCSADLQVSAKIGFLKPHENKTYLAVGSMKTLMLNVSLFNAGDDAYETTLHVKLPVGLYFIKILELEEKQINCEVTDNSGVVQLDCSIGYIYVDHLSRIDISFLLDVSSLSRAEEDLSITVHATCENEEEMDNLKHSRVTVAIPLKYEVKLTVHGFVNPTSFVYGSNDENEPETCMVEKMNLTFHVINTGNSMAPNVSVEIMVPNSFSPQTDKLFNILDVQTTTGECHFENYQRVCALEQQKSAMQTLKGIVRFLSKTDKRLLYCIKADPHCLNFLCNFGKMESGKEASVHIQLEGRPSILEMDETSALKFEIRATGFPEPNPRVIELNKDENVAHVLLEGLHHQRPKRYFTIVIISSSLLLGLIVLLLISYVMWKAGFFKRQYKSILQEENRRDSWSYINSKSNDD
T2 sequence (P26010 20-798): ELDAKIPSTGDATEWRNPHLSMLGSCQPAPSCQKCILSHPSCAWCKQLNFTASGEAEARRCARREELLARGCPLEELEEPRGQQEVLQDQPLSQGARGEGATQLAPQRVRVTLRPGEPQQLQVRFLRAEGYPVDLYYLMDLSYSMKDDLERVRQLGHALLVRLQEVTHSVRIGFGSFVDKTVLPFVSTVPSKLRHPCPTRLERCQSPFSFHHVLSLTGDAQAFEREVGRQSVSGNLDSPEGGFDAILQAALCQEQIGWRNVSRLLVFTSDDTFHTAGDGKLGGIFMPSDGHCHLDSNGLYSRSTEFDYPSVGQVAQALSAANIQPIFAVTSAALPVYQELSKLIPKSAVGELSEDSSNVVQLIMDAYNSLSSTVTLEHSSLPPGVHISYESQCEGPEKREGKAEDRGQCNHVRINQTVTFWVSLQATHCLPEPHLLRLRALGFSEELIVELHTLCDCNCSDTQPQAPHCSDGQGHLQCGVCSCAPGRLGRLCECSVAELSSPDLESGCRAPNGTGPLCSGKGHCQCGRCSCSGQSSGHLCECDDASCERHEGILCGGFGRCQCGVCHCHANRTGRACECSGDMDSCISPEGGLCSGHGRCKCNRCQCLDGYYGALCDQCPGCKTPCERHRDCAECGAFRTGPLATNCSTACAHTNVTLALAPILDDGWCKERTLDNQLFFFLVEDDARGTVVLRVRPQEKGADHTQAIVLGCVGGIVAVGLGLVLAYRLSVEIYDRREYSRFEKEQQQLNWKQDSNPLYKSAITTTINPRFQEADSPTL
Description: α4β7-K562 Cell Adhesion Assay (α4β7 Mediated Adhesion/VCAM-1)
as §1, with “A stable cell line of K562 cells expressing human α4β7,” for “Ramos cells,”

T1 sequence (P05556 21-798, one chain of several): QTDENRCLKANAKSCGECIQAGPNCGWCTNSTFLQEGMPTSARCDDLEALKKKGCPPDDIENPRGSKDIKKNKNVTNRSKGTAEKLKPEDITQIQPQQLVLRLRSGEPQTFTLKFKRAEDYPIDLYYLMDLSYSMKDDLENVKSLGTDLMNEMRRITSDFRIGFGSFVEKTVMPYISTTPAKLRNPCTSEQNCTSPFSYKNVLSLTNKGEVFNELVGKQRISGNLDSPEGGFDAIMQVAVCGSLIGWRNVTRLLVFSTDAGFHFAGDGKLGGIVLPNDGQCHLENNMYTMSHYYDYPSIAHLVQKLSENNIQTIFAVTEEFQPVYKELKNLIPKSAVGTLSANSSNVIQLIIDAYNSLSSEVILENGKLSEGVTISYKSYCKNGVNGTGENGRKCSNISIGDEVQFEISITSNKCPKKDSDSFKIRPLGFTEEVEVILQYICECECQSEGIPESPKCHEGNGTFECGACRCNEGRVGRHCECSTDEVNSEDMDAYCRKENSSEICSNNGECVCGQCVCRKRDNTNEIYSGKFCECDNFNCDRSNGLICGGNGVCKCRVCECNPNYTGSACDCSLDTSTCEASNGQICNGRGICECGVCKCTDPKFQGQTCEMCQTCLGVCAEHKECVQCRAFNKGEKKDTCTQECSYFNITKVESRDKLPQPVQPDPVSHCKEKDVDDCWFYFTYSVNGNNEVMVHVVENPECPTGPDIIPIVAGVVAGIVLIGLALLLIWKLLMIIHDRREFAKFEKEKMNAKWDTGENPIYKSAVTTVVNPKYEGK

| IC50 (α4β1 integrin receptor) [µM] | IC50 (human α4β7; μM) [µM] | IC50 (human α4β7) [µM] | IC50 (α4β1 integrin receptor; μM) [µM] | Structure (SMILES) |
| --- | --- | --- | --- | --- |
| 0.903 | > 10 |  |  | Cc1ccc(S(=O)(=O)N2C3CCC(CC3)C2C(=O)N[C@@H](Cc2ccc(NC(=O)c3ccccc3)cc2)C(=O)O)cc1 (stereo partly drawn) [Cpd 25, 4-(benzoylamino)-N-[[2-[(4-methylphenyl)sulfonyl]-2-azabicyclo[2.2.2]oct-3-yl]carbonyl]-L-phenylalanine] |
| 1.09 | > 10 |  |  | Cc1ccc(S(=O)(=O)N2C3CCC(CC3)C2C(=O)N[C@@H](Cc2ccc(NC(=O)Cc3c(Cl)cccc3Cl)cc2)C(=O)O)cc1 (stereo partly drawn) [Cpd 27, 4-[[(2,6-dichlorophenyl)acetyl]amino]-N-[[2-[(4-methylphenyl)sulfonyl]-2-azabicyclo[2.2.2]oct-3-yl]carbonyl]-L-phenylalanine] |
| 0.058 |  | 4.94 |  | Cc1ccc(S(=O)(=O)N2C3CCC(CC3)[C@H]2C(=O)N[C@@H](Cc2ccc(OCc3c(Cl)cccc3Cl)cc2)C(=O)O)cc1 [Cpd 29, 4-[(2,6-dichlorophenyl)methoxy]-N-[[(3S)-2-[[4-methylphenyl)sulfonyl]-2-azabicyclo[2.2.2]oct-3-yl]carbonyl]-L-phenylalanine] |
|  | > 10 |  | > 5 | Cc1ccc(S(=O)(=O)N2C3CCC(CC3)C2C(=O)N[C@@H](Cc2ccc(OCc3ccccc3)cc2)C(=O)O)cc1 (stereo partly drawn) [Cpd 30, 4-(phenylmethoxy)-N-[[2-[(4-methylphenyl)sulfonyl]-2-azabicyclo[2.2.2]oct-3-yl]carbonyl]-L-phenylalanine] |
|  | > 10 |  | > 5 | Cc1ccc(S(=O)(=O)N2C3CCC(CC3)C2C(=O)N[C@@H](Cc2ccc(-n3cccc3)cc2)C(=O)O)cc1 (stereo partly drawn) [Cpd 32, 4-(1H-pyrrol-1-yl)-N-[[2-[(4-methylphenyl)sulfonyl]-2-azabicyclo[2.2.2]oct-3-yl]carbonyl]-L-phenylalanine] |
|  | > 10 |  | > 5 | Cc1ccc(S(=O)(=O)N2C3CCC(CC3)C2C(=O)N[C@@H](Cc2ccc(-c3ccccc3)cc2)C(=O)O)cc1 (stereo partly drawn) [Cpd 33, 4-phenyl-N-[[2-[(4-methylphenyl)sulfonyl]-2-azabicyclo[2.2.2]oct-3-yl]carbonyl]l-L-phenylalanine] |
|  | > 10 |  | > 5 | COc1cccc(OC)c1C(=O)Nc1cccc(C[C@H](NC(=O)C2C3CCC(CC3)N2S(=O)(=O)c2ccc(C)cc2)C(=O)O)c1 (some centres unmarked) [Cpd 36, 3-[(2,6-dimethoxybenzoyl)amino]-N-[[2-[(4-methylphenyl)sulfonyl]-2-azabicyclo[2.2.2]oct-3-yl]carbonyl]phenylalanine] |
|  | > 10 |  | > 5 | Cc1ccc(S(=O)(=O)N2C3CCC(CC3)C2C(=O)N[C@@H](Cc2cccc(NC(=O)c3c(Cl)cccc3Cl)c2)C(=O)O)cc1 (some centres unmarked) [Cpd 37, 3-[(2,6-dichlorobenzoyl)amino]-N-[[2-[(4-methylphenyl)sulfonyl]-2-azabicyclo[2.2.2]oct-3-yl]carbonyl]phenylalanine] |
|  | > 10 |  | > 5 | CN(C(=O)C1C2CCC(CC2)N1S(=O)(=O)c1ccccc1)[C@@H](Cc1ccc(OCc2c(Cl)cccc2Cl)cc1)C(=O)O (some centres unmarked) [Cpd 38, O-[(2,6-dichlorophenyl)methyl]-methyl-N-[[2-(phenylsulfonyl)-2-azabicyclo[2.2.2]oct-3-yl]carbonyl]tyrosine] |

Further lines, the compound ahead of its results:

| Structure (SMILES) | IC50 (α4β1 integrin receptor) [µM] | IC50 (human α4β7; μM) [µM] | IC50 (human α4β7) [µM] | IC50 (α4β1 integrin receptor; μM) [µM] |
| --- | --- | --- | --- | --- |
| COc1ccc(OC)c(C(=O)c2ccc(C(=O)Nc3ccc(C[C@H](NC(=O)C4C5CCC(CC5)N4S(=O)(=O)c4ccc(C)cc4)C(=O)O)cc3)cc2)c1 (stereo partly drawn) [Cpd 26, 4-[[4-(2,5-dimethoxybenzoyl)benzoyl]amino]-N-[[2-[(4-methylphenyl)sulfonyl]-2-azabicyclo[2.2.2]oct-3-yl]carbonyl]-L-phenylalanine] | 0.669 | > 10 |  |  |
| O=C(Nc1ccc(C[C@H](NC(=O)C2C3CCC(CC3)N2S(=O)(=O)c2ccccc2)C(=O)O)cc1)Nc1c(Cl)cccc1Cl (stereo partly drawn) [Cpd 28, 4-[[[(2,6-dichlorophenyl)amino]carbonyl]amino]-N-[[2-(phenylsulfonyl)-2-azabicyclo[2.2.2]oct-3-yl]carbonyl]-L-phenylalanine] | 1.6 | > 5 |  |  |
| Cc1ccc(S(=O)(=O)N2C3CCC(CC3)C2C(=O)N[C@@H](Cc2ccc(NC(=O)c3c(C(C)C)cc(C(C)C)cc3C(C)C)cc2)C(=O)O)cc1 (stereo partly drawn) [Cpd 31, 4-[[2,4,6-tris(1-methylethyl)benzoyl]amino]-N-[[2-[(4-methylphenyl)sulfonyl]-2-azabicyclo[2.2.2]oct-3-yl]carbonyl]-L-phenylalanine] |  | > 10 |  | > 5 |
| O=C(Nc1ccc(C[C@H](NC(=O)C2C3CCC(CC3)N2S(=O)(=O)c2ccccc2)C(=O)O)cc1)Nc1c(F)cccc1F (stereo partly drawn) [Cpd 34, 4-[[[(2,6-difluorophenyl)amino]carbonyl]amino]-N-[[2-(phenylsulfonyl)-2-azabicyclo[2.2.2]oct-3-yl]carbonyl]-L-phenylalanine] |  | > 10 |  | > 5 |
| Cc1ccc(S(=O)(=O)N2C3CCC(CC3)C2C(=O)N[C@@H](Cc2cccc(NC(=O)c3c(F)cccc3F)c2)C(=O)O)cc1 (stereo partly drawn) [Cpd 35, 3-[(2,6-difluorobenzoyl)amino]-N-[[2-[(4-methylphenyl)sulfonyl]-2-azabicyclo[2.2.2]oct-3-yl]carbonyl]-L-phenylalanine] |  | > 10 |  | > 5 |
| CN(C(=O)[C@H]1C2CCC(CC2)N1S(=O)(=O)c1ccccc1)[C@@H](Cc1ccc(NC(=O)c2c(Cl)cccc2Cl)cc1)C(=O)O [Cpd 39, 4-[(2,6-dichlorobenzoyl)amino]-N-methyl-N-[[(3R)-2-(phenylsulfonyl)-2-azabicyclo[2.2.2]oct-3-yl]carbonyl]-L-phenylalanine] |  | > 10 |  | > 5 |
| O=C(N[C@@H](Cc1ccc(OCc2c(Cl)cccc2Cl)cc1)C(=O)O)C1C2C=CC(CC2)N1S(=O)(=O)c1ccccc1 (stereo partly drawn) [Cpd 40, O-[(2,6-dichlorophenyl)methyl]-N-[[2-(phenylsulfonyl)-2-azabicyclo[2.2.2]oct-5-en-3-yl]carbonyl]-L-tyrosine] | 0.293 |  | 2.51 |  |

Reference: US6960597B2, “Aza-bridged-bicyclic amino acid derivatives as α4 integrin antagonists” (Orth-McNeil Pharmaceutical, Inc., priority 2000, dated 2005)
